Test results published in patent US11826448B2, “Zinc-arginine-chloride complex” (Colgate-Palmolive Company, priority 2018, dated 2023).

Test system: keratinocyte cell line (Hacat)
Experiment: Wound healing efficacy: scratch assay on a keratinocyte monolayer culture
Assay type: cell-based
Experimental: Wound healing efficacy is determined by incubating a monolayer cell culture with ZBA.
Briefly, a keratinocyte cell line (Hacat) was cultured with full confluency in a 24 well plate. The cells are then scratched horizontally and vertically with a pipet tips to generate a wound. The cells are washed twice with 1 mL of PBS buffer, then full culture medium (supplemented with 10% FBS and 1% antibiotic) is added to the scratched cells. The ZBA solution obtained from Example 1 is diluted with full culture medium at a concentration of 5 ppm or 50 ppm. Culture wells are incubated at 37° C. at 5% CO2 for up to 72 hours with either the ZBA medium mixture or with medium alone. The area of the scratches is then compared by light microscopy at different time points up to 72 hrs.

[1] = ZBA solution diluted in full culture medium at 5 ppm or 50 ppm, 37° C., 5% CO2, up to 72 hours, light microscopy

Substance: [Zn(Arginine)2Cl]^+Cl^− [ZBA]
- cell migration into the scratch wound compared to medium alone [1]: greater cell migration
- cell proliferation compared to medium alone [1]: faster proliferation
- morphology of the cells adjacent to the wound (in the presence of ZBA, up to 72 hours): improved
